In patent US20040082635A1, “Fused cyclic compounds and medicinal use thereof” (priority 2001, published 2004):
Where a name gives a salt, the structure may show the parent alone.

Target: T1, HCV polymerase (Hepatitis C virus genotype 1b, UniProt P26663)
T1 construct: a region encoding NS5B (591 amino acids; J Virol 1991 Mar, 65(3), 1105-13) was amplified by PCR; 6 His (N); made in house; host or cells: Escherichia coli
Test: biochemical
Conditions: read-out: HCV polymerase inhibitory activity IC50

T1 sequence (P26663 2420-3010): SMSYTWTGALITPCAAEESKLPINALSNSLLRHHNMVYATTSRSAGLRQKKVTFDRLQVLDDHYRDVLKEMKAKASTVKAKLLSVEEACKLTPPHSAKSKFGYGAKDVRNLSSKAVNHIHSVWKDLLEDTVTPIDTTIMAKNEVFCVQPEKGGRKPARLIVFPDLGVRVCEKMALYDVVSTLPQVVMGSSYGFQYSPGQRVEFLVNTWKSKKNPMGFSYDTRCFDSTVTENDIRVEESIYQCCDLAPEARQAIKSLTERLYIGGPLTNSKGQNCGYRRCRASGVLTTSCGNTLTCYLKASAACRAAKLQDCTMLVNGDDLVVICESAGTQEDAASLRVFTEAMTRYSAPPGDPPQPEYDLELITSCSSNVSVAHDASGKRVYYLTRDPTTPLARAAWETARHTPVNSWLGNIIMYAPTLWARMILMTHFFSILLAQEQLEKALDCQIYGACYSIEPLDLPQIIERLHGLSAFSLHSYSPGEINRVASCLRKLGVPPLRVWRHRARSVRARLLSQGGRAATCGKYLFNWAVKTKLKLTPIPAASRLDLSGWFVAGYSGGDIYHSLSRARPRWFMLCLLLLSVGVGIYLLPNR

Question: Which IC50 does the source give for O=C(O)c1ccc2c(c1)nc(-c1ccc(OCc3cc(N4CCCC4=O)ccc3-c3ccc(Cl)cc3)cc1F)n2C1CCSCC1 [Example 419, 2-{4-[2-(4-chlorophenyl)-5-(2-oxopyrrolidin-1-yl)benzyloxy]-2-fluorophenyl}-1-(tetrahydrothiopyran-4-yl)benzimidazole-5-carboxylic acid hydrochloride] here?
Answer: 21 nM

Question: CN(C)C(=O)c1ccc(-c2ccc(Cl)cc2)c(COc2ccc(-c3nc4cc(C(=O)O)ccc4n3C3CCCC3)c(F)c2)c1 [Example 410, 2-{4-[2-(4-chlorophenyl)-5-(dimethylcarbamoyl)benzyloxy]-2-fluorophenyl}-1-cyclopentylbenzimidazole-5-carboxylic acid hydrochloride] was tested. Which IC50 did it give?
Answer: 18 nM

Question: CC(C)=CCCOc1cccc(Oc2ccc(-c3nc4cc(C(=O)O)ccc4n3C3CCCCC3)cc2)c1 [Example 163, 1-cyclohexyl-2-{4-[3-(4-methyl-3-pentenyloxy)phenoxy]phenyl}-benzimidazole-5-carboxylic acid] was tested. Which IC50 did it give?
Answer: 150 nM

Question: CC(C)C(=O)N(C)c1ccc(-c2ccc(Cl)cc2)c(COc2ccc(-c3nc4cc(C(=O)O)ccc4n3C3CCCCC3)c(F)c2)c1 [Example 451, 2-[4-{2-(4-chlorophenyl)-5-(N-isopropylcarbonyl-N-methylamino)benzyloxy}-2-fluorophenyl]-1-cyclohexylbenzimidazole-5-carboxylic acid hydrochloride] was tested. Which IC50 did it give?
Answer: 31 nM

Question: CN(C)C(=O)c1ccc(-c2ccc(Cl)cc2)c(COc2ccc(-c3nc4cc(C(=O)O)ccc4n3C3CCCCC3)c(F)c2)c1 [Example 269, 2-{4-[2-(4-chlorophenyl)-5-dimethylcarbamoylbenzyloxy]-2-fluorophenyl}-1-cyclohexylbenzimidazole-5-carboxylic acid hydrochloride] was tested. Which IC50 did it give?
Answer: 13 nM

Question: With O=C(O)c1ccc2c(c1)nc(-c1ccc(OCc3cc(N4CCOC4=O)ccc3-c3ccc(Cl)cc3)cc1F)n2C1CCCCC1 [Example 423, 2-{4-[2-(4-chlorophenyl)-5-(2-oxooxazolidin-3-yl)benzyloxy]-2-fluorophenyl}-1-cyclohexylbenzimidazole-5-carboxylic acid hydrochloride] as the compound, how does the IC50 read?
Answer: 17 nM

Question: For O=C(O)c1ccc2c(c1)nc(-c1ccc(OC[C@@H]3CCCN3S(=O)(=O)c3ccccc3)cc1)n2C1CCCCC1 [Example 193, 2-{4-[{(2S)-1-benzenesulfonyl-2-pyrrolidinyl}methoxy]phenyl}-1-cyclohexylbenzimidazole-5-carboxylic acid], which IC50 is on record?
Answer: 130 nM

Question: How did the IC50 turn out when CCN(c1ccc(-c2ccc(Cl)cc2)c(COc2ccc(-c3nc4cc(C(=O)O)ccc4n3C3CCCCC3)c(F)c2)c1)S(C)(=O)=O [Example 461, 2-[4-{2-(4-chlorophenyl)-5-[N-ethyl-N-(methylsulfonyl)amino]-benzyloxy}-2-fluorophenyl]-1-cyclohexylbenzimidazole-5-carboxylic acid hydrochloride] was run?
Answer: 21 nM

Question: CCCOc1cccc(Oc2ccc(-c3nc4cc(C(=O)O)ccc4n3C3CCCCC3)cc2)c1 [Example 111, 1-cyclohexyl-2-[4-(3-propoxyphenoxy)phenyl]benzimidazole-5-carboxylic acid] was tested. Which IC50 did it give?
Answer: 140 nM

Question: With CC(C)NC(=O)c1ccc(-c2ccc(Cl)cc2)c(COc2ccc(-c3nc4cc(C(=O)O)ccc4n3C3CCSCC3)cc2)c1 [Example 416, 2-{4-[2-(4-chlorophenyl)-5-(isopropylcarbamoyl)benzyloxy]phenyl}-1-(tetrahydrothiopyran-4-yl)benzimidazole-5-carboxylic acid hydrochloride] as the compound, how does the IC50 read?
Answer: 24 nM

Question: How did the IC50 turn out when O=C(O)c1ccc2c(c1)nc(-c1ccc(OCc3sc(CN4CCC(O)CC4)nc3-c3ccc(F)cc3)cc1)n2C1CCCCC1 [Example 427, 2-{4-[{4-(4-fluorophenyl)-2-(4-hydroxypiperidin-1-ylmethyl)thiazol-5-yl}methoxy]phenyl}-1-cyclohexylbenzimidazole-5-carboxylic acid dihydrochloride] was run?
Answer: 20 nM

Question: For O=C(O)c1ccc2c(c1)nc(-c1ccc(OC(c3ccccc3)c3ccccc3)cc1)n2C1CCCCC1 [Example 82, 1-cyclohexyl-2-[4-(diphenylmethoxy)phenyl]benzimidazole-5-carboxylic acid], which IC50 is on record?
Answer: 97 nM
